The text below walks through data of paper PMC8602566 (Frontiers in Oncology, 2021).

Series [1] has as its system Human leukemia cell line K562. Briefly: MTT cell viability assay, K562. The format is cell-based. The settings on record: K562, MTT, 72 h, read-out: IC50 antiproliferative activity K562. As to the method:
(§1) Cell viability was measured using the 3-(4,5-dimethylthiazol-2-yl)-2,5-diphenyltetrazolium bromide (MTT) assay and was expressed as a ratio to the absorbance value at 570 nm of the control cells.

Series [2] relates to Human colon carcinoma cell line SW-620. Briefly: MTT cell viability assay, SW-620. The format is cell-based. Conditions: SW-620, MTT, 72 h, read-out: IC50 antiproliferative activity SW-620. As to the method: as §1
The subject of series [3] is U87 cells. Nature of the series: Cell cycle analysis by flow cytometry. Conditions: 2.5 μM, 36 h (control 4.6%). The format is cell-based, Human. As to the method: […] Cells were detached, fixed in 70% ethanol in PBS (−20°C) overnight and resuspended in PBS supplemented with 100 µg/ml RNase and 50 µg/ml PI for 30 min. Cell cycle analysis was performed on a flow cytometry (FACSCalibur BD, BD Biosciences, San Jose, CA, USA).
Inhibition of HDACs results in anticancer effect through various mechanisms, like cell cycle arrest, reduced proliferation, and induction of apoptosis ([30]). Thus, the cell cycle profile of the human GBM cell line U87 treated with DMC-HA was analyzed by using flow cytometry. […] Although in control cells, only 4.6% of cells were in G2/M phase, 14.5% of cells in G2/M phase were found after treatment with 2.5 μM DMC-HA.
A general note: In flow cytometry, cells or beads pass a laser one at a time.

For series [4], the system named is U87 cells. Nature of the series: Cell apoptosis assay by flow cytometry (Annexin V-FITC/PI). The format is cell-based, Human. The settings on record: 10 μM, Annexin V/PI (control 3.3%). As to the method: For apoptosis assays, 5 × 10^5 U87 cells were seeded into six-well plates for 24 h and treated with a range of concentrations of DMC-HA for 36 h. Annexin V-FITC/PI apoptosis detection kit was used to perform the apoptotic assay following the manufacturer’s instructions (Beyotime, Jiangsu, China). After treatment, 1 × 10^6 cells were washed using 1 ml binding buffer for three times, then centrifuged at 300×g and stained with 10 μl Annexin V-FITC solution at 37°C for 15 min. Before detecting, 5 μl PI solution was added to the samples, and the apoptotic cells were detected using flow cytometry (FACSCalibur BD, BD Biosciences, San Jose, CA, USA).
To further investigate the apoptotic effect of DMC-HA on GBM, we treated U87 cells with increasing concentrations of DMC-HA. After 48 h, the morphological changes of DMC-HA-treated U87 cells were observed, such as cell shrinking, rounding, and detachment (Figure 4A). […] To further confirm whether DMC-HA could induce apoptosis in U87 cells, cells were stained with Annexin V and PI after treatment with various concentrations of DMC-HA.

The nature of series [5]: Hepatic microsome stability assay, human. The format is in vitro ADME. The settings on record: human liver microsomes, NADPH, 37°C, pH 7.4. As to the method: (§2) Metabolic stability was assessed in the presence of human, mouse, and rat liver microsomes (XenoTech, Lenexa, KS, USA). All liquid dispenses and transfer steps were performed with the Freedom Evo automated liquid handler (Tecan US). Compound stock solutions were initially prepared in 100% DMSO and subsequently diluted in acetonitrile for the assay. The pH of the reactions was kept at 7.4 with potassium phosphate buffer. The reaction wells were prepared by adding microsomes to a well and allowed to warm to 37°C. Then, compound was added to each well. The reactions were […] by adding cofactor reduced nicotinamide adenine dinucleotide phosphate (NADPH) to the reaction well containing microsomes and compounds. Negative controls received buffer only. Immediately after reactions started, 0-min aliquots were promptly collected and mixed in a separate well with ice cold acetonitrile to quench the reactions. The remainder of the reaction volume was incubated at 37°C with shaking. An additional aliquot was collected at 60 min after the start of the reaction and promptly quenched with ice cold acetonitrile. Samples were vortexed and centrifuged at 3,500 rpm for 10 min. The amount of compound in the supernatant was determined by liquid chromatography–tandem mass spectrometry (LC/MS/MS) (Thermo Fischer Scientific, San Jose, CA, USA), and the percent of parent compound remaining after 60 min was calculated. Results are the mean of each reaction triplicate, normalized to the internal standard, and expressed as the percent of compound remaining after the incubation time.
(§3) Structures that are active in vitro may not be potent in vivo due to their susceptibility to metabolism in the body. We then thoroughly examined the liver microsomal metabolic stability of DMC-HA across three different species (Table 3). […] In addition, the half-life of DMC-HA in human microsome is generally two to three times longer than those in mice and rats. Collectively, the in vitro liver microsomal stability of DMC-HA is favorable, guaranteeing its further in vivo studies.
For orientation: Microsomes from liver hold many membrane-bound enzymes, among them those of drug oxidation.

Series [6] can be described thus: Hepatic microsome stability assay, mice. The format is in vitro ADME. Conditions: mouse liver microsomes, NADPH, 37°C, pH 7.4. As to the method:
as §2, §3

The target of the next series is HDAC5 (Homo sapiens, UniProt Q9UQL6). Briefly: HDACs inhibition assay, HDAC5.
HDAC5, sequence (Q9UQL6 whole entry): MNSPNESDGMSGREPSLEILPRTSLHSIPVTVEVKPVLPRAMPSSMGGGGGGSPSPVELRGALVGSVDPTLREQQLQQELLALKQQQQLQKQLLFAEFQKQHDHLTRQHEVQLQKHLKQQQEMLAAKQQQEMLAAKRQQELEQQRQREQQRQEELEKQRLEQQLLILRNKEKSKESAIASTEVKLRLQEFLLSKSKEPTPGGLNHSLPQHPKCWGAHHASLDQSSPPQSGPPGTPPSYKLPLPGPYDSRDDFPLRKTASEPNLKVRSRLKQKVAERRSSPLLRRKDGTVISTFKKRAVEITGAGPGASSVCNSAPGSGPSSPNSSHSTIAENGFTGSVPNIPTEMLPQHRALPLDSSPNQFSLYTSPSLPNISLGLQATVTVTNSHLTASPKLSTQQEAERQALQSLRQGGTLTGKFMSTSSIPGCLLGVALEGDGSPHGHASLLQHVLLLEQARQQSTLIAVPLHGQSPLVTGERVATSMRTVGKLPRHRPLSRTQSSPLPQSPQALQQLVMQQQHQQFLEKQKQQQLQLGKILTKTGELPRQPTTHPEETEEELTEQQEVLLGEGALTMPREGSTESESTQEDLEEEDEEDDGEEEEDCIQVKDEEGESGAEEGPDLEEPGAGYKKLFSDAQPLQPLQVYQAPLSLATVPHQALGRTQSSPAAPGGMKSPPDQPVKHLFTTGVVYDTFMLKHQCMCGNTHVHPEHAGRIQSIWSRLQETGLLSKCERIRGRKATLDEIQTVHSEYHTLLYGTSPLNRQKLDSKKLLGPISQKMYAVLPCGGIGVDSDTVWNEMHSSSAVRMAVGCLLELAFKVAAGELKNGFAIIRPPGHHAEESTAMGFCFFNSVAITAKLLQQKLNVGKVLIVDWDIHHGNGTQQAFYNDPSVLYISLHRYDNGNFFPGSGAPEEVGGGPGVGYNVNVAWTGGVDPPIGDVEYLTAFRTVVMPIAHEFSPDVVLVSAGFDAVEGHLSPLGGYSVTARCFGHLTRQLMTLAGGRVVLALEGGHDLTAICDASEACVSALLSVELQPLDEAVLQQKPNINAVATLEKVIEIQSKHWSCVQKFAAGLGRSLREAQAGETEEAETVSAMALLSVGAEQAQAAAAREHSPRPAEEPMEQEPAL
The target of the next series is HDAC8 (Homo sapiens, UniProt Q9BY41). Briefly: HDACs inhibition assay, HDAC8.
HDAC8, sequence (Q9BY41 whole entry): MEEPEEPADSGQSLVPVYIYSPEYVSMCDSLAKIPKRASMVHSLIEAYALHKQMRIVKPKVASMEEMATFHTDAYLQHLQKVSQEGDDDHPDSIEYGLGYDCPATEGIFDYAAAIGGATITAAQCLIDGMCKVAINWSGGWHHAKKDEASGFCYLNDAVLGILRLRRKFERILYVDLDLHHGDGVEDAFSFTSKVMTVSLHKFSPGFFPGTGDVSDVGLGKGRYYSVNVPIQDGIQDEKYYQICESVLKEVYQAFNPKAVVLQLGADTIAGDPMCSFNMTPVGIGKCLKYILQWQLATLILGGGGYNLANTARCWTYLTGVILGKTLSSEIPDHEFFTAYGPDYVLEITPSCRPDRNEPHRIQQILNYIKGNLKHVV
Another series concerns the target SIRT1 (Homo sapiens, UniProt Q96EB6). Nature of the series: HDACs inhibition assay, SIRT1.
A further series deals with HDAC10 (Homo sapiens, UniProt Q969S8). Nature of the series: HDACs inhibition assay, HDAC10.
HDAC10, sequence (Q969S8 whole entry): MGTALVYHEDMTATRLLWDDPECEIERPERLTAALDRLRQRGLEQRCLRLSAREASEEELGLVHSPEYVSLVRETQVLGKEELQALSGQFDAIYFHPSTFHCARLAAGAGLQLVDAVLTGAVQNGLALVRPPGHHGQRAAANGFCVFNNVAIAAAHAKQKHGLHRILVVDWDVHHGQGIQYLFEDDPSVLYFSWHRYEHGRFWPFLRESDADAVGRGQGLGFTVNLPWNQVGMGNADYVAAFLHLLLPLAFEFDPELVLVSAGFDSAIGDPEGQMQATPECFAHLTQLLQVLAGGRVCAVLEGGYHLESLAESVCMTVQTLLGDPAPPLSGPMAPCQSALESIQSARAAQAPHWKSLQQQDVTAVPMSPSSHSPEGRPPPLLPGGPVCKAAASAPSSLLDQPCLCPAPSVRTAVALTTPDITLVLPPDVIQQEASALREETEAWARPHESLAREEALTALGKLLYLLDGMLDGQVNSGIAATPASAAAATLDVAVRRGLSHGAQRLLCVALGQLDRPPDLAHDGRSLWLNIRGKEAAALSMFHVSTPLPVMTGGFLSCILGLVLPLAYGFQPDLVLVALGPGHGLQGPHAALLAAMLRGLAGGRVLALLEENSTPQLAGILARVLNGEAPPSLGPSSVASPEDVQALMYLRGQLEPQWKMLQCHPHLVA

Molecules are shown by their SMILES. A value given as a limit tells only on which side of the number the result lay.

SIRT1, sequence (Q96EB6 whole entry): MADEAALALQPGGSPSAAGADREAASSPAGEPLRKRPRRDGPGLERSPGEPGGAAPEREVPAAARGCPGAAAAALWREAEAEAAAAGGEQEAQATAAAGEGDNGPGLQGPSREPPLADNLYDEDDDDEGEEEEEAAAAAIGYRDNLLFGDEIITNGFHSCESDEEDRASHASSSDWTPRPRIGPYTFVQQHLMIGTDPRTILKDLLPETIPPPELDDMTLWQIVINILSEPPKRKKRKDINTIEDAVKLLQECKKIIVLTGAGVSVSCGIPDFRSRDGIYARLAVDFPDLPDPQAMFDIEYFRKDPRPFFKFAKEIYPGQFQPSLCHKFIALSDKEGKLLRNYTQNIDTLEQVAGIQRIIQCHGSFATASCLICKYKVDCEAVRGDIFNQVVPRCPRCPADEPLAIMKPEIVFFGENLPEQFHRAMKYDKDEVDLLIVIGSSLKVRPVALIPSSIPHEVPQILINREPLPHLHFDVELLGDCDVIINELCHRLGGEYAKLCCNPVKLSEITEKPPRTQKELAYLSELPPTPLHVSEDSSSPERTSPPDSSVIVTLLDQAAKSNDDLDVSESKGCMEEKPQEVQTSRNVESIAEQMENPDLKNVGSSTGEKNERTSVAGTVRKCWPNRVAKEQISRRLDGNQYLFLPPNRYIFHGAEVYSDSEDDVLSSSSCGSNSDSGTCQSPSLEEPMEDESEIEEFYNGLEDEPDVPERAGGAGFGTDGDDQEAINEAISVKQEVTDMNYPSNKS
Experimental for HDAC10: (§4) The inhibition assays for HDACs were carried out according to standard protocols. […] The reaction was stopped by the addition of 45 μl of 100 mM HEPES (pH 7.5) and 0.08% sodium dodecyl sulfate (SDS). The substrate and the product were then separated electrophoretically using a LabChip 3000 system (Caliper Life Sciences, Hopkinton, MA) with blue laser excitation and green fluorescence detection.
Experimental for HDAC5: as §4
Experimental for HDAC8: as §4
Experimental for SIRT1: as §4

Usually IC50 stands for the concentration at which inhibition is half-maximal. For orientation: microsomal CLint means a measure of how fast metabolising enzymes remove a compound, apart from limits set by blood flow. As to `COc1cc(/C=C/C(=O)CC(=O)/C=C/c2ccc(/C=C/C(=O)NO)cc2)ccc1O` [DMC-HA], the half-maximal inhibitory concentration (IC50) in [1] is 1.95 ± 0.71 µM; in series [2], 3.22 ± 0.3 µM; against HDAC5, more than 10 µM; at HDAC8, 2.93 µM; at SIRT1, more than 10 µM; at HDAC10 it was 8.39 µM. Moreover, the “cells in G2/M phase” value with U87 cells [3] is 14.5%. Further, the total apoptotic cells with U87 cells [4] was 90.0%. Further, the “Human Liver Microsomal Stability T1/2” value in series [5] turned out to be 1.53 h. Also, the microsomal CLint in series [5] worked out at 17.5 µL/min/mg; in [6], 43.2 µL/min/mg. For the same molecule, in [6], the “Mice Liver Microsomal Stability T1/2” value was 0.545 h.
